Consider 5 molecules from patent publication US20250154201A1, “PEPTIDE BINDING TO MESOTHELIN, AND USE THEREOF” (KYUNGPOOK NATIONAL UNIVERSITY INDUSTRY-ACADEMIC COOPERATION …, priority 2022, published 2025).

For data set [1], the system named is PANC-1 and AsPC-1 cell lines. Nature of the data set: analysis of invasion (Matrigel-coated 24-transwell). The format is cell-based, human. Particulars: 200 μM + 10% FBS; 24 hours. As for the experimental part:
PANC-1 and AsPC-1 cell lines were cultured using DMEM and RPMI-1640 media with 10% FBS added in 100 mm dish each at a concentration of 2×10^6 cells per well. After 24 hours, all media in 100 mm dishes were removed and replaced with DMEM and RPMI-1640 media without addition of 10% FBS to inhibit migratability of cell lines so as to be in a starvation state. After 24 hours, 300 μg/mL of Matrigel was coated on the upper chamber of 24-Transwell. Afterwards, PANC-1 and AsPC-1 cell lines were cultured in the upper chamber at a concentration of 2×10^4 cells in a 100 mm dish, 10% FBS was added to the lower chamber for the experimental group, and 0% FBS was added to the lower chamber for the control group to identify migratability. 3% ACN, 200 μM control peptide (Ctrl-pep), MSLN-pep 25. For 50, 100, and 200 μM groups, each cell line was cultured together in the upper chamber of the 24-Transwell, and 10% FBS was treated in the lower chamber. Each group was cultured at 37° C. for 24 hours, and then the cells were photographed (original magnification, ×100) for each concentration of peptides. Cells were stained with crystal violet (0.1%), and Image J, a computer program, was used for quantitative evaluation.
(§1) After pancreatic cancer cell lines PANC-1 and AsPC-1 were cultured in 24-transwells, all cells were starved for 24 hours to inhibit cell growth, and then treatment was performed in divided groups of 10% FBS, 0% FBS, 3% ACN+10% FBS, 200 μM NSSSVDK+10% FBS, 25 μM MSLN-pep+10% FBS, 50 μM MSLN-pep+10% FBS, 100 μM MSLN-pep+10% FBS, and 200 μM MSLN-pep+10% FBS.

A further data set deals with mesothelin (Homo sapiens, UniProt Q13421). As to the kind of experiment: immunofluorescence binding to HEK-293T cells transiently transfected with mesothelin-GFP plasmid. Also on record: GFP; host or cells: HEK293T. As to conditions: 10 μM and 25 μM MSLN-pep, 25 μM Ctrl-pep; transfected and untransfected HEK-293T. The data set is classed as cell-based. The procedure:
HEK293T cells were transiently transfected using Lipofectamine 3000 (Invitrogen) in 6-well plates according to the manufacturer's protocol. Prior to transfection, 2×10^5 cells were cultured in 6-well plates for 24 hours. To transfect one well, 7.5 μl of Lipofectamine 3000 reagent was diluted in 250 μl of Opti-MEM (Invitrogen) reagent, followed by a reaction at room temperature for 5 minutes. 5 μg of mesothelin-expressing plasmid pCMV6-AC-GFP vector DNA was diluted in 250 μl of Opti-MEM (Invitrogen) reagent, followed by a reaction at room temperature for 5 minutes. The mixture of two solutions were then mixed and reacted at room temperature for 10 minutes (a total of 500 μl per well). The old medium of the cells was immediately removed, and a 500 μl of DNA-transfection reagent-mixture was added to the cells before transfer to the incubator. After 24 hours of culture, the medium was again replaced with a pre-warmed growth medium containing serum. Culture was performed for 48 hours, and the newly inserted protein was expressed in the cells.
Taken together, it was found via immunofluorescence analysis that MSLN-pep specifically binds to mesothelin.

Data set [2] relates to PANC-1 and AsPC-1 cell lines. Nature of the data set: analysis of migration (24-transwell). The format is cell-based, human. As to conditions: 200 μM + 10% FBS; 24 hours. The procedure:
PANC-1 and AsPC-1 cell lines were cultured using DMEM and RPMI-1640 media with 10% FBS added respectively in the upper chamber of 24-transwell at a concentration of 2×10^4 cells per well. After 24 hours, all the media in the upper chamber of 24-transwells were removed and replaced with DMEM and RPMI-1640 media without addition of 10% FBS to inhibit migratability of cell lines, so as to be in a starvation state. After 24 hours, the experimental group was added with 10% FBS in the lower chamber, and the control was added with 0% FBS in the lower chamber to observe migratability. 3% ACN, 200 μM control peptide (Ctrl-pep), MSLN-pep 25. For 50, 100, and 200 μM groups, the media in the upper chamber of 24-Transwell were removed, each drug was treated by concentration, and 10% FBS was treated in the lower chamber. Each group was cultured at 37° C. for 24 hours, and then the cells were photographed (original magnification, ×100) by concentration of each peptide. Cells were stained with crystal violet (0.1%), and the ImageJ, a computer program, was used for quantitative evaluation.
as §1

The next data set relates to AsPC-1 tumor. As to the kind of experiment: tumor homing of peptides in mice. The format is in vivo, nude mice. Particulars: TAMRA-labeled, intravenous, 6 hours circulation; liver, lungs, kidneys. The procedure:
Pancreatic cancer cell line AsPC-1 cells (1×10^7 cells) were implanted under the skin of nude mice, left until the tumor size reaches about 100 mm^3, and then intravenously injected with 100 μl of 1 mM peptides labeled with a TAMRA fluorescence reagent, followed by circulation for 6 hours. Tumors and organs (liver, lung, and kidney) were separated and treated with paraformaldehyde for fixation and preparation of cryosections. The prepared cryosections were observed under a fluorescence microscope.
Pancreatic cancer cell line AsPC-1 cells (1×10^7 cells) were implanted under
the skin of nude mice, left until the tumor size reached about 100 mm^3, and then intravenously injected with MSLN-pep labeled with the TAMRA fluorescence reagent and control peptide (Ctrl-pep), followed by circulation for 6 hours. The tumor and control organs were separated, and cryosections were prepared, followed by observation under a fluorescence microscope.

The test system of data set [3] is pancreatic cancer cell lines PANC-1 and AsPC-1. As to the kind of experiment: internalization of FITC-labeled peptides (confocal microscopy). The format is cell-based, human. As to conditions: 25 μM and 50 μM MSLN-pep, 50 uM NSSSVDK; 1 and 2 hours. The procedure:
To observe the intracellular distribution of the internalized FITC-labeled peptide MSLN-pep, pancreatic cancer cell lines AsPC-1 and PANC-1 cells (2.5×10^5 cell counts) were dispensed on a 4-well chamber slide. After complete adhesion, the cell culture medium was replaced with a fresh medium containing FITC-labeled peptides (25 μM, 50 μM), […], and the cells were washed with PBS 3 times for 3˜5 minutes, followed by fixation (4% paraformaldehyde; PFA) for 5 minutes. Thereafter, washing with PBS was performed. After staining the nucleus with DAPI and mounting on a glass slide with a fading reagent, internalization of FITC-labeled MSLN-pep was observed under confocal microscopy.

The test system of data set [4] is pancreatic cancer cell line AsPC-1. As to the kind of experiment: cells. The procedure: (§2) Pancreatic cancer cell line AsPC-1 cells (5×10^3 cells/well in 96-well plates) were cultured in 1% serum medium with various concentrations of MSLN-pep peptide that specifically binds to mesothelin, NSSSVDK control peptide (Ctrl-pep), R7-KLA peptide that induces apoptosis, Abraxane, gemcitabine, and PBS at 37° C. for 24 and 48 hours. Afterwards, CCK-8 Kit (Dojindo, Kumamoto, Japan) reagent was treated, and a reaction was carried out at 37° C. for 2 hours to evaluate cytotoxicity.
(§3) To determine whether there is cytotoxicity when MSLN-pep binds specifically to mesothelin, the peptide was treated to the pancreatic cancer cell line AsPC-1 at concentrations of 0, 25, 50, 100, and 200 μM, and cell viability was checked for 24 and 48hours.

Another data set in a line: in vitro. The procedure:
as §2, §3

Data set [5] has as its target T1, human mesothelin (endogenous, on pancreatic cancer cell lines AsPC-1, PANC-1, BxPC-3, MiaPaCa-2) (human, UniProt Q13421 296-598).
T1 construct: whole, on cells; also called MSLN
As to the kind of experiment: confocal microscopy on PANC-1 and AsPC-1 cells, 1 and 2 hours.

Data set [6] addresses T1, human mesothelin (endogenous, on …). Nature of the data set: cell-based or functional assay.

≈ marks a conversion by molar mass, not a printed value. Positions of bridges follow the written chain, without caps; N, C: chain ends. Residues, ends and D or L forms follow the SMILES beside them. No end group written: not given here.

T1 sequence (Q13421 other isoform, or with tags, fused parts or gaps limits assumed): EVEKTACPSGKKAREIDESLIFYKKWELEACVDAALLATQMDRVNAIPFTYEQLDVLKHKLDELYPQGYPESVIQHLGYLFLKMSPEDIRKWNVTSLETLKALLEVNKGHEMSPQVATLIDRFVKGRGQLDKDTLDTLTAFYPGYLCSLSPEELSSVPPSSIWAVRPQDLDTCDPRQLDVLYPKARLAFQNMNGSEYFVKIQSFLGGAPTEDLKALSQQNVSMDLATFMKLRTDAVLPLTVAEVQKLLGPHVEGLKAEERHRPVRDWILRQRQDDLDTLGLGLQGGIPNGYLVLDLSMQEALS
Sequence of mesothelin (Q13421 with tags, fused parts or gaps): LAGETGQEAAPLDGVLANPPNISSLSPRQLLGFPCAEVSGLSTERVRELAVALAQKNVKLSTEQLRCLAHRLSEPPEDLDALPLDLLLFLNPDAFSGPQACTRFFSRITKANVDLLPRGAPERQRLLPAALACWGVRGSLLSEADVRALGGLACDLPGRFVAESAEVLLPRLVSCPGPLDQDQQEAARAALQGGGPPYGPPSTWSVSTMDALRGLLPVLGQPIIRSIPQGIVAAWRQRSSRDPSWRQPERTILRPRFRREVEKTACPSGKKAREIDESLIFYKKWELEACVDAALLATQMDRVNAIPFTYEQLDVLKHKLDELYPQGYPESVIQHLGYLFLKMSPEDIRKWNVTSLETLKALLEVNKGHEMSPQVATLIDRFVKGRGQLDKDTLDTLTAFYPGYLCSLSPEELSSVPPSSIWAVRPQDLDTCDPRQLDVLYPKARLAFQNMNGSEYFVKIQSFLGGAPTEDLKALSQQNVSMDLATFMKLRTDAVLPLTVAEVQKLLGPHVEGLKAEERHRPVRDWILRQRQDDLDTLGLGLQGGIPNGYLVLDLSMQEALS

For NSSSVDK [Ctrl-pep, reference compound], in data set [1], the “invasiveness compared to treatment of 10% FBS” value is “no difference in the migratability and invasiveness”. For the same molecule, the “specific binding (immunofluorescence)” value with mesothelin is listed as “did not have specific binding”. Moreover, the “migratability compared to treatment of 10% FBS” value in [2] was “no difference in the migratability and invasiveness”. Besides, the “targeting to control organs (fluorescence microscopy of cryosections)” value in the data set with AsPC-1 tumor is “barely observed”. Further, in data set [3], the “binding and internalization into cells” value was “did not bind to PANC-1 and AsPC-1”.
For `Nc1ccn([C@@H]2O[C@H](CO)[C@@H](O)C2(F)F)c(=O)n1` [gemcitabine, reference compound], the half-maximal inhibitory concentration (IC50) in [4] (Homo sapiens, ASPC1, 24 h, read-out: IC50 value (cytotoxicity)) came to 3.3 µg/mL (≈ 12.5 µM). The viability at 10 µg/mL in data set [4] (Homo sapiens, ASPC1, 24 h, read-out: cell viability) is at most 40%.
Take `CC[C@H](C)[C@@H]1NC(=O)[C@H]([C@@H](C)O)NC(=O)[C@@H](N)CSSC[C@@H](C(=O)N[C@@H](CCCCN)C(=O)N[C@@H](CC(C)C)C(=O)N[C@@H](C)C(=O)N[C@@H](CCCCN)C(=O)N[C@@H](CC(C)C)C(=O)N[C@@H](C)C(=O)N[C@@H](CCCCN)C(=O)N[C@@H](CCCCN)C(=O)N[C@@H](CC(C)C)C(=O)N[C@@H](C)C(=O)N[C@@H](CCCCN)C(=O)N[C@@H](CC(C)C)C(=O)N[C@@H](C)C(=O)N[C@@H](CCCCN)C(=O)O)NC(=O)[C@H]([C@@H](C)O)NC(=O)[C@H](CC(C)C)NC(=O)[C@H](CO)NC(=O)[C@H](Cc2c[nH]c3ccccc23)NC(=O)[C@H](CC(C)C)NC1=O` [MSLN-pep-KLA] (H-CTILWSLTCKLAKLAKKLAKLAK-OH; disulfide 1-9): in [4] (0, 6.25, 12.5, 25, 50, 100, and 200 uM, 24 hours), the “cell viability, comparison between groups” value was “second lowest”. Further, half-maximal inhibition in the data set “in vitro” (IC50) required 33 µM.
For NSSSVDK (Control peptide) [NSSSVDK control peptide (Ctrl-pep)], the binding result in data set [5] is reported as “no binding (tested: 50 µM)”.
Turning to CTILWSLTCKLAKLAKKLAKLAK (disulfide 1-9) [MSLN-pep-KLA (fusion of CTILWSLTC and apoptotic peptide KLAKLAKKLAKLAK)], in data set [6], the “cell viability of AsPC-1 after 24 hours (CCK-8), IC50” value amounted to 33 µM.
